According to the kinase profiling compilation of Christmann-Franck et al. (2016):
Several values for one entry are separate records, joined by “and”; a condition that tells them apart may be missing. Equal entries are not always repeated.

Key:
Assay in all cases: radiometric filter-binding kinase assay, Kinase HotSpot
Details in all cases: compound 0.5 µM; ATP 10 µM
ADRBK2 (human) = ADRBK2 (human) (UniProt P35626)
AURKB (human) = AURKB (human) (UniProt Q96GD4)
BMX (human) = BMX (human) (UniProt P51813)
BMX (human), sequence (P51813 whole entry, looked up): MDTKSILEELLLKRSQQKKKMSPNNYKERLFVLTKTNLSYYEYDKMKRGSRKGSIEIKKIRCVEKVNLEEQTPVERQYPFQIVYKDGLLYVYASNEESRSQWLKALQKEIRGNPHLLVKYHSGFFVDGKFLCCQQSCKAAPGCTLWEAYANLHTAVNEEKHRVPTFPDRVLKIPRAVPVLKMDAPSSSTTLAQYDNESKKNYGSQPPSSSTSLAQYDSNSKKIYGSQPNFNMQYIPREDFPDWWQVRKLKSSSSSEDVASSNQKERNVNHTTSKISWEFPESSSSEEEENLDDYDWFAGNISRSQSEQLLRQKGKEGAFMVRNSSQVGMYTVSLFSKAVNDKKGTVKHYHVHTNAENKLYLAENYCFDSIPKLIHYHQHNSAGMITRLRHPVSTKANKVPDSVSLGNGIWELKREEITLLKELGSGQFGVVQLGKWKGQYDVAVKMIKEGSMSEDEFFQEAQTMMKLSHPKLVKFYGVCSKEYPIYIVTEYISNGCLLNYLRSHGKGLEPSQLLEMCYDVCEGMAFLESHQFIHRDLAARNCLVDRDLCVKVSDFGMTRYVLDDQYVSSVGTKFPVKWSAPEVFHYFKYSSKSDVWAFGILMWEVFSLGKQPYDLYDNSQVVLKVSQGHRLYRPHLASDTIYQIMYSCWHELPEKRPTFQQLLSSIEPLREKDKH

CDK1 CCNA2 (human) = CDK1 CCNA2 (human) (UniProt P06493+P20248)
CDK9 CCNK (human) = CDK9 CCNK (human) (UniProt O75909+P50750)
CDK9 CCNT1 (human) = CDK9 CCNT1 (human) (UniProt P50750+O60563)
CHEK2 (human) = CHEK2 (human) (UniProt O96017)
CSK (human) = CSK (human) (UniProt P41240)
CSK (human), sequence (P41240 whole entry, looked up): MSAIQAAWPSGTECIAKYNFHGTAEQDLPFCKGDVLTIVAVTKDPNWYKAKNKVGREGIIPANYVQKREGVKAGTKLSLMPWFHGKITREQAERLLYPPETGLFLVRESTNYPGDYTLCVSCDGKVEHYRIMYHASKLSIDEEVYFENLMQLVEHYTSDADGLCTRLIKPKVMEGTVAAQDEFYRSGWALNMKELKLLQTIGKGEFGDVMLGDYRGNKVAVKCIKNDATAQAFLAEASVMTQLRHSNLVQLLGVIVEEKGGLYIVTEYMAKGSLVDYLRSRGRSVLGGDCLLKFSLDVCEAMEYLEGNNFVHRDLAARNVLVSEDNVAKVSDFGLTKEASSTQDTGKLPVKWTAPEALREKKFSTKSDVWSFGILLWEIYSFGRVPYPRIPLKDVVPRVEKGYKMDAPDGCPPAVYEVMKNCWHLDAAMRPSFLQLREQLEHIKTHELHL

DAPK1 (human) = DAPK1 (human) (UniProt P53355)
DAPK1 (human), sequence (P53355 whole entry, looked up): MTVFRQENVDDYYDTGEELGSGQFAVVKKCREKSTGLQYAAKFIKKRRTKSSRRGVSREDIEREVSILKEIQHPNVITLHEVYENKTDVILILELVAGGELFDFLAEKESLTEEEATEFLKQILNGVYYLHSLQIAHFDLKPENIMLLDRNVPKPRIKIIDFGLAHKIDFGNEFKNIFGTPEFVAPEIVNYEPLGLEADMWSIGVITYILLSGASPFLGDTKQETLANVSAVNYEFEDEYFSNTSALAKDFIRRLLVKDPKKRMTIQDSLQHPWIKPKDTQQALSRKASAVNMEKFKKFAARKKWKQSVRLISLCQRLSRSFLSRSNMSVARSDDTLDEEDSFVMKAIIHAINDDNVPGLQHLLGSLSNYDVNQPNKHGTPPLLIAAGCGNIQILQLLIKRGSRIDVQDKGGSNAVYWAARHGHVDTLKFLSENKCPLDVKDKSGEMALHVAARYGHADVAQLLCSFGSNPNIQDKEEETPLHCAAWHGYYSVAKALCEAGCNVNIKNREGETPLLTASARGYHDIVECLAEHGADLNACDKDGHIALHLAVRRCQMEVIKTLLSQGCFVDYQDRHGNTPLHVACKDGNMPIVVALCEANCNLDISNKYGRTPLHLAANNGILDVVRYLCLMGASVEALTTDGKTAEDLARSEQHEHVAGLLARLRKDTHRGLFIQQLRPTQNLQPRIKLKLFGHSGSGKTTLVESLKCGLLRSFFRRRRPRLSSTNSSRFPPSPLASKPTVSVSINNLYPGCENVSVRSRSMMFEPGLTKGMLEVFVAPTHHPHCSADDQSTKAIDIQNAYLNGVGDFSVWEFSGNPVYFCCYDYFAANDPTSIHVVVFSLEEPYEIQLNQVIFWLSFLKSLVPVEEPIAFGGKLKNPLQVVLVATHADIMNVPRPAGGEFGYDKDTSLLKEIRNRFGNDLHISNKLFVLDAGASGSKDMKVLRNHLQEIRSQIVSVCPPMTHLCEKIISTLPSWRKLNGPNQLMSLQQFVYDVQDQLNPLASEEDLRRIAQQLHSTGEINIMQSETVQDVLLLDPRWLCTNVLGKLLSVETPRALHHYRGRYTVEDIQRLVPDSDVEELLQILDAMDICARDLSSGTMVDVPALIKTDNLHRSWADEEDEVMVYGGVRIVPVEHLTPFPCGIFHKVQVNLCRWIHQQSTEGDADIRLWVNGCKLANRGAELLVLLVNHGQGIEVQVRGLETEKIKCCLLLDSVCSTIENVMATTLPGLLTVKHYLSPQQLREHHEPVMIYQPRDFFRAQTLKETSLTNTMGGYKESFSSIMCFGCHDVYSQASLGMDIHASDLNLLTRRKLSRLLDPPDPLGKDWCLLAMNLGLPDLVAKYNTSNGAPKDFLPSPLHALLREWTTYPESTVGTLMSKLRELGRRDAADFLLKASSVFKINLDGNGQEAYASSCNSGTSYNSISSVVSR

DMPK (human) = DMPK (human) (UniProt Q09013)
DMPK (human), sequence (Q09013 whole entry, looked up): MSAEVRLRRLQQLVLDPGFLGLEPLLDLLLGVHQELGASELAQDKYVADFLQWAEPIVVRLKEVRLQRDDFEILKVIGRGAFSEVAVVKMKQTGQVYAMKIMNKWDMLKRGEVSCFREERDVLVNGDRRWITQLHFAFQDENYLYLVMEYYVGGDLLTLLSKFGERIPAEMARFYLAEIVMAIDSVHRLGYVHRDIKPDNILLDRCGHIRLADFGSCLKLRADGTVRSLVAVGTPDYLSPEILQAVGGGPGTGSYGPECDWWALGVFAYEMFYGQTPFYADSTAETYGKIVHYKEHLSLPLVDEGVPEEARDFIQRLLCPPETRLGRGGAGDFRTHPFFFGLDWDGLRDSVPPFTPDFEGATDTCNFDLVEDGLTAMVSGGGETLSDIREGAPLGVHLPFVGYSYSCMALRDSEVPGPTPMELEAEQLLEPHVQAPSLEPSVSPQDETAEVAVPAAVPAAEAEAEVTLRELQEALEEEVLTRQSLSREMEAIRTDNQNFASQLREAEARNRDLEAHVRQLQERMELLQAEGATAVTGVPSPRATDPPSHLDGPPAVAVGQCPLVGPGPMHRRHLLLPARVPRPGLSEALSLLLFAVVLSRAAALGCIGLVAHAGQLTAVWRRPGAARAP

EPHA4 (human) = EPHA4 (human) (UniProt P54764)
EPHA7 (human) = EPHA7 (human) (UniProt Q15375)
EPHA8 (human) = EPHA8 (human) (UniProt P29322)
EPHA8 (human), sequence (P29322 whole entry, looked up): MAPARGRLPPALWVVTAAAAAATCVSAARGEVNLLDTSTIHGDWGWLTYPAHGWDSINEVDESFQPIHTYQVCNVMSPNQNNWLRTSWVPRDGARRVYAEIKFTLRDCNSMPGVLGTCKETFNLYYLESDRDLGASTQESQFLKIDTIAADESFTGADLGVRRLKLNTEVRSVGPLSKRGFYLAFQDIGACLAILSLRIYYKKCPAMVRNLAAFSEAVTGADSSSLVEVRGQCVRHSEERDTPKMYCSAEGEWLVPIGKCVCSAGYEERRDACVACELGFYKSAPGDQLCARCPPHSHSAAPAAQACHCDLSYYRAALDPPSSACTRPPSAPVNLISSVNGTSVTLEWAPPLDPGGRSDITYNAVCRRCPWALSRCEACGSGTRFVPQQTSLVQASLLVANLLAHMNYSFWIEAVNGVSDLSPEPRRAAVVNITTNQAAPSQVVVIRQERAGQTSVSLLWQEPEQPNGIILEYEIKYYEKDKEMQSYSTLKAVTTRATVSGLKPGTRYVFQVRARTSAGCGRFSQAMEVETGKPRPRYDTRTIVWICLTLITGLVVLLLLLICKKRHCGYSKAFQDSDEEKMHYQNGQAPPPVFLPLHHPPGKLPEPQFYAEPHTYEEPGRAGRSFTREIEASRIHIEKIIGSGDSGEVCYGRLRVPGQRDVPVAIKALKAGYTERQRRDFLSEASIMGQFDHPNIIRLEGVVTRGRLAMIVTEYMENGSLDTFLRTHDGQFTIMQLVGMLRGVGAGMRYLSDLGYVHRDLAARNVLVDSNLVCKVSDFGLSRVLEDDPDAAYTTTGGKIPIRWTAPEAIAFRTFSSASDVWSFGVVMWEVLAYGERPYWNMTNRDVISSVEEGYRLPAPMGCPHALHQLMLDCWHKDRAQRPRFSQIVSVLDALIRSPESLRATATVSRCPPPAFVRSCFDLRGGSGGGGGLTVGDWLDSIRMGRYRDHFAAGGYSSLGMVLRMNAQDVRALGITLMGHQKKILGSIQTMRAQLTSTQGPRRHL

GRK5 (human) = GRK5 (human) (UniProt P34947)
HIPK3 (human) = HIPK3 (human) (UniProt Q9H422)
INSR (human) = INSR (human) (UniProt P06213)
[1] = molecular target: JAK1 JH1 catalytic (human) (UniProt P23458)
JAK3 JH1 JH2 (human) = JAK3 JH1 JH2 (human) (UniProt P52333)
KIT (human) = KIT (human) (UniProt P10721)
LRRK2 (human) = LRRK2 (human) (UniProt Q5S007)
MAP3K5 (human) = MAP3K5 (human) (UniProt Q99683)
MAP4K2 (human) = MAP4K2 (human) (UniProt Q12851)
MAPKAPK2 (human) = MAPKAPK2 (human) (UniProt P49137)
MATK (human) = MATK (human) (UniProt P42679)
MELK (human) = MELK (human) (UniProt Q14680)
NEK6 (human) = NEK6 (human) (UniProt Q9HC98)
NTRK3 (human) = NTRK3 (human) (UniProt Q16288)
NUAK1 (human) = NUAK1 (human) (UniProt O60285)
PAK7 (human) = PAK7 (human) (UniProt Q9P286)
PHKG2 (human) = PHKG2 (human) (UniProt P15735)
PIM2 (human) = PIM2 (human) (UniProt Q9P1W9)
PRKCH (human) = PRKCH (human) (UniProt P24723)
PRKD1 (human) = PRKD1 (human) (UniProt Q15139)
PRKG1 (human) = PRKG1 (human) (UniProt Q13976)
PRKG1 (human), sequence (Q13976 whole entry, looked up): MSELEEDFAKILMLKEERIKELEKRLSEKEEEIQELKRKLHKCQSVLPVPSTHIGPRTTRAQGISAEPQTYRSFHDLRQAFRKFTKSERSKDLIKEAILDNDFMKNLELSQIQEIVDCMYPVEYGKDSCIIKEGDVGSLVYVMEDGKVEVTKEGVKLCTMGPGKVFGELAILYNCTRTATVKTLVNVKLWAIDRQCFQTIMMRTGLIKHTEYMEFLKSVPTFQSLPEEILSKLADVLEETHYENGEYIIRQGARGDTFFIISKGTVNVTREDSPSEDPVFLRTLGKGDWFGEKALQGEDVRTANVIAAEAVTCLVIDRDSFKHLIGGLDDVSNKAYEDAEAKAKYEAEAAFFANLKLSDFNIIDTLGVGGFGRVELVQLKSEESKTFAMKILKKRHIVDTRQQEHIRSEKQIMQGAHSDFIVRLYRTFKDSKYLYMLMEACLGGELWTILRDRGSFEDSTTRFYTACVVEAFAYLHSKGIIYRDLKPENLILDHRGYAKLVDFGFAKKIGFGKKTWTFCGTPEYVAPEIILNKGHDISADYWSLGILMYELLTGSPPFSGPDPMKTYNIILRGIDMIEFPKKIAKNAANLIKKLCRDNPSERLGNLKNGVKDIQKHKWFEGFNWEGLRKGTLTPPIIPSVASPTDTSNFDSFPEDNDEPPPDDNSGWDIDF

SGK3 (human) = SGK3 (human) (UniProt Q96BR1)
STK24 (human) = STK24 (human) (UniProt Q9Y6E0)
STK3 (human) = STK3 (human) (UniProt Q13188)
STK39 (human) = STK39 (human) (UniProt Q9UEW8)
SYK (human) = SYK (human) (UniProt P43405)
TNK2 (human) = TNK2 (human) (UniProt Q07912)
TYRO3 (human) = TYRO3 (human) (UniProt Q06418)
YES1 (human) = YES1 (human) (UniProt P07947)

SMILES: O=C1Nc2ccc(Br)cc2/C1=C\c1cc2c([nH]1)CCCC2
- residual activity (ADRBK2 (human)): 89.9%
- residual activity (AURKB (human)): 56.7%
- residual activity (BMX (human)): 89.9%
- residual activity (CDK1 CCNA2 (human)): 96.3%
- residual activity (CDK9 CCNK (human)): 96.7%
- residual activity (CDK9 CCNT1 (human)): 90%
- residual activity (CHEK2 (human)): 68.2%
- residual activity (CSK (human)): 98.5%
- residual activity (DAPK1 (human)): 111%
- residual activity (DMPK (human)): 101%
- residual activity (EPHA4 (human)): 94.8%
- residual activity (EPHA7 (human)): 85.3%
- residual activity (EPHA8 (human)): 94.5%
- residual activity (GRK5 (human)): 106%
- residual activity (HIPK3 (human)): 96.7%
- residual activity (INSR (human)): 85.8%
- residual activity [1]: 99.3%
- residual activity (JAK3 JH1 JH2 (human)): 89.3%
- residual activity (KIT (human)): 30.5%
- residual activity (LRRK2 (human)): 7.03%
- residual activity (MAP3K5 (human)): 101%
- residual activity (MAP4K2 (human)): 58.1%
- residual activity (MAPKAPK2 (human)): 97.5%
- residual activity (MATK (human)): 94.2%
- residual activity (MELK (human)): 75.6%
- residual activity (NEK6 (human)): 103%
- residual activity (NTRK3 (human)): 11.9%
- residual activity (NUAK1 (human)): 27.7%
- residual activity (PAK7 (human)): 85.4%
- residual activity (PHKG2 (human)): 90.5%
- residual activity (PIM2 (human)): 100%
- residual activity (PRKCH (human)): 97.4%
- residual activity (PRKD1 (human)): 93.8%
- residual activity (PRKG1 (human)): 77% and 87.9%
- residual activity (SGK3 (human)): 97.6%
- residual activity (STK24 (human)): 94.2%
- residual activity (STK3 (human)): 60.7%
- residual activity (STK39 (human)): 86%
- residual activity (SYK (human)): 90.5%
- residual activity (TNK2 (human)): 92.8%
- residual activity (TYRO3 (human)): 104%
- residual activity (YES1 (human)): 67.2%

SMILES: CN(C)c1ccc(/C=C2\C(=O)Nc3ccccc32)cc1
- residual activity (ADRBK2 (human)): 98.9%
- residual activity (AURKB (human)): 61.4%
- residual activity (BMX (human)): 92.2%
- residual activity (CDK1 CCNA2 (human)): 96.9%
- residual activity (CDK9 CCNK (human)): 100%
- residual activity (CDK9 CCNT1 (human)): 94.5%
- residual activity (CHEK2 (human)): 91.6%
- residual activity (CSK (human)): 96.9%
- residual activity (DAPK1 (human)): 92.2%
- residual activity (DMPK (human)): 105%
- residual activity (EPHA4 (human)): 95.2%
- residual activity (EPHA7 (human)): 99.1%
- residual activity (EPHA8 (human)): 103%
- residual activity (GRK5 (human)): 104%
- residual activity (HIPK3 (human)): 94.4%
- residual activity (INSR (human)): 93.4%
- residual activity [1]: 105%
- residual activity (JAK3 JH1 JH2 (human)): 113%
- residual activity (KIT (human)): 45.6%
- residual activity (LRRK2 (human)): 89.8%
- residual activity (MAP3K5 (human)): 99.4%
- residual activity (MAP4K2 (human)): 109%
- residual activity (MAPKAPK2 (human)): 106%
- residual activity (MATK (human)): 95.3%
- residual activity (MELK (human)): 89.3%
- residual activity (NEK6 (human)): 96.9%
- residual activity (NTRK3 (human)): 36.3%
- residual activity (NUAK1 (human)): 80.4%
- residual activity (PAK7 (human)): 101%
- residual activity (PHKG2 (human)): 95.9%
- residual activity (PIM2 (human)): 82.4%
- residual activity (PRKCH (human)): 92.3%
- residual activity (PRKD1 (human)): 100%
- residual activity (PRKG1 (human)): 86.9% and 99.7%
- residual activity (SGK3 (human)): 107%
- residual activity (STK24 (human)): 96.7%
- residual activity (STK3 (human)): 100%
- residual activity (STK39 (human)): 96.6%
- residual activity (SYK (human)): 90.4%
- residual activity (TNK2 (human)): 101%
- residual activity (TYRO3 (human)): 92.7%
- residual activity (YES1 (human)): 89.3%

SMILES: O=C1C(Cl)=C(N2C(=O)CCC2=O)C(=O)c2ccccc21
- residual activity (ADRBK2 (human)): 103%
- residual activity (AURKB (human)): 103%
- residual activity (BMX (human)): 103%
- residual activity (CDK1 CCNA2 (human)): 99.8%
- residual activity (CDK9 CCNK (human)): 97.2%
- residual activity (CDK9 CCNT1 (human)): 101%
- residual activity (CHEK2 (human)): 95.7%
- residual activity (CSK (human)): 79.5%
- residual activity (DAPK1 (human)): 101%
- residual activity (DMPK (human)): 98.5%
- residual activity (EPHA4 (human)): 101%
- residual activity (EPHA7 (human)): 106%
- residual activity (EPHA8 (human)): 107%
- residual activity (GRK5 (human)): 91.5%
- residual activity (HIPK3 (human)): 112%
- residual activity (INSR (human)): 105%
- residual activity [1]: 107%
- residual activity (JAK3 JH1 JH2 (human)): 101%
- residual activity (KIT (human)): 84.7%
- residual activity (LRRK2 (human)): 103%
- residual activity (MAP3K5 (human)): 99.1%
- residual activity (MAP4K2 (human)): 89.6%
- residual activity (MAPKAPK2 (human)): 105%
- residual activity (MATK (human)): 88%
- residual activity (MELK (human)): 96.4%
- residual activity (NEK6 (human)): 104%
- residual activity (NTRK3 (human)): 98.6%
- residual activity (NUAK1 (human)): 105%
- residual activity (PAK7 (human)): 108%
- residual activity (PHKG2 (human)): 100%
- residual activity (PIM2 (human)): 123%
- residual activity (PRKCH (human)): 93.1%
- residual activity (PRKD1 (human)): 104%
- residual activity (PRKG1 (human)): 104% and 97.8%
- residual activity (SGK3 (human)): 103%
- residual activity (STK24 (human)): 87%
- residual activity (STK3 (human)): 98.2%
- residual activity (STK39 (human)): 97.3%
- residual activity (SYK (human)): 95.9%
- residual activity (TNK2 (human)): 91.5%
- residual activity (TYRO3 (human)): 114%
- residual activity (YES1 (human)): 103%
